A short description of one data set: physchem. As to conditions: octanol/water.
Data set [1] concerns the target T1, Trypsin (Sus scrofa, UniProt P00761).
Description: (§1) Inhibition of pig pancreatic trypsin after 15 mins
Data set [2] deals with Coagulation factor VII/tissue factor (Homo sapiens, UniProt P08709).
Description: Inhibition of amidolytic activity of human tissue factor/human factor 7a
Data set [3] has as its target T1, Trypsin. The source holds these as a separate data set.
Description: as §1
For data set [4] the following is noted: octanol/water.
Description: (§2) Octanol-water partition coefficient, log P of the compound

Several values for one entry are separate records, joined by “and”; a condition that tells them apart may be missing. Equal entries are not always repeated. Bounds are passed on as bounds.

T1 sequence (P00761 whole entry): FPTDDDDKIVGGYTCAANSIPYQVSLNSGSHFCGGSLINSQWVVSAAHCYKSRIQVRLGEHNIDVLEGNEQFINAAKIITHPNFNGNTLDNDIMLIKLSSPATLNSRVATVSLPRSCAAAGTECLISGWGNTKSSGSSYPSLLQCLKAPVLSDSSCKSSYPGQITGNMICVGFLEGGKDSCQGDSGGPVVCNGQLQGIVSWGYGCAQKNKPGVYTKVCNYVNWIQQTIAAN
Coagulation factor VII/tissue factor, sequence (P08709 61-212 limits assumed): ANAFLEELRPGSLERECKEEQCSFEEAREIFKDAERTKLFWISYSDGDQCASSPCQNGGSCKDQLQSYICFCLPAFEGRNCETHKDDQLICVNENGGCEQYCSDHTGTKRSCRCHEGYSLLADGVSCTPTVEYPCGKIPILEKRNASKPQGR
Coagulation factor VII/tissue factor, sequence (P08709 213-466 limits assumed): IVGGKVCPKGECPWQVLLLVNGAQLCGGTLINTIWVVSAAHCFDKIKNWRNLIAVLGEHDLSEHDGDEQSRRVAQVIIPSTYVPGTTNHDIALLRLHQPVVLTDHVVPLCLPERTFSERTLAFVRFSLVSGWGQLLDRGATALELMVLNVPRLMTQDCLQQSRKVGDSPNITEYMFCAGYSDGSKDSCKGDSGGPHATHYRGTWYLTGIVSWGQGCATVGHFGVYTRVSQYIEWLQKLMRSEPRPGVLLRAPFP
Coagulation factor VII/tissue factor, sequence (P13726 33-295 partner limits assumed): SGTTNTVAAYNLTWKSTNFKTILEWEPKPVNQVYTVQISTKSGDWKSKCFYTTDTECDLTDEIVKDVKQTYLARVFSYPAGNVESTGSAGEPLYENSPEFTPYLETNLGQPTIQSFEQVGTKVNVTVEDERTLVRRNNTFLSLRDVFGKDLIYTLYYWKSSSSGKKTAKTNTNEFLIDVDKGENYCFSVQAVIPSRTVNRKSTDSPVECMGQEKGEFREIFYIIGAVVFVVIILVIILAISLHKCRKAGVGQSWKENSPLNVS
Description for physchem: as §2

As usually defined, the logP is a log measure of how a compound divides between an organic and an aqueous phase. Lower therefore signals a more hydrophilic compound. One may read the IC50 as the midpoint of a concentration-inhibition curve. Low values mean higher potency, high ones lower potency. Molecule `CC/C=C\C/C=C\C/C=C\CCCCCCCCCC(=O)O` displayed a logP in the data set “physchem” (logP) of 3.3. The results for the IC50 (against Trypsin [1]; in data set [2]) were greater than 200 µM and 100 µM, respectively.
The molecule `CCCCC/C=C\C/C=C\CCCCCCCCCC(=O)O` yielded a logP in “physchem” (logP) of 2.41. Moreover, the IC50 is greater than 200 µM against Trypsin [1] and 52 µM in data set [2].
For `CCCCC/C=C\C/C=C\CCCCCCCc1cccc(O)c1C(=O)O`, in that order: 3.72, greater than 200 µM and 33 µM.
In the case of `CCCCC/C=C\C/C=C\C/C=C\C/C=C\CCCC(=O)O` [ARACHIDONIC ACID], in “physchem”, the logP turned out to be 2.9. Further, the IC50 on Trypsin [1] is greater than 200 µM; in data set [2] it was 105 µM.
In the case of `CCCCC/C=C\C/C=C\C/C=C\CCCCCCC(=O)O` [DIHOMO-GAMMA-LINOLENIC ACID], the logP in “physchem” (logP) came to 3.5; in data set [4] it was 3.28. The IC50 at Trypsin [3] was greater than 200 µM; at Trypsin [1], greater than 200 µM; in data set [2], 75 µM and 30 µM.
In the case of `CCCCC/C=C\C/C=C\C/C=C\CCCCC(=O)O` [GAMOLENIC ACID], in the data set “physchem” (logP), the logP turned out to be 2.55. Besides, the IC50 against Trypsin [1] was greater than 200 µM; in data set [2] it was 30 µM.
For `CCCCCC/C=C\CCCCCCCc1cccc(O)c1C(=O)O` [GINGKOLIC ACID], in that order: 3.99, greater than 200 µM and 32 µM.
For `CC/C=C\C/C=C\C/C=C\C/C=C\C/C=C\CCCC(=O)O` [ICOSAPENT], in that order: 2.48, greater than 200 µM and 78 µM.
The corresponding values for `CCCCC/C=C\C/C=C\CCCCCCCC(=O)O` [LINOLEIC ACID] are 3, greater than 200 µM and 41 µM.
On to `CC/C=C\C/C=C\C/C=C\CCCCCCCC(=O)O` [LINOLENIC ACID], for which the logP in the data set “physchem” (logP) amounted to 2.51. The results for the IC50 (against Trypsin [1]; in data set [2]) were greater than 200 µM and 30 µM, respectively.
As to `CCCC/C=C\CCCCCCCC(=O)O` [MYRISTOLEIC ACID], the IC50 at Trypsin [1] was greater than 200 µM; in data set [2], 66 µM.
Take `CCCCCCCC/C=C\CCCCCCCC(=O)O` [OLEIC ACID]: the logP in the data set “physchem” (logP) was 3.54. Besides, the IC50 against Trypsin [1] is greater than 200 µM; in data set [2], 80 µM.
For `CCCCCC/C=C\CCCCCCCC(=O)O` [PALMITOLEIC ACID], in that order: 2.73, greater than 200 µM and 120 µM.

Values taken from ChEMBL document CHEMBL1151306, “Inhibitory activity of unsaturated fatty acids and anacardic acids toward soluble tissue factor-factor VIIa complex” (J Nat Prod, 1998).
